According to PubChem BioAssay (NCI):
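Dose response: 5 concentrations. Exposure: 48 h. Format: 96-well plates. Endpoint: linear interpolation; highest concentration if not reached. Here, GI50 denotes the concentration required for 50% inhibition of growth. Definition used: TGI = concentration required for complete inhibition of growth.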

Assays:
Experiment in all cases: NCI-60 cell line screen, 48 h
[1] = system: M14 melanoma
[2] = system: 786-0 renal
[3] = system: CAKI-1 renal
[4] = system: HCT-15 colon
[5] = system: MALME-3M melanoma
[6] = system: MCF7 breast
[7] = system: ACHN renal
[8] = system: MOLT-4 leukemia
[9] = system: SF-268 CNS
[10] = system: HOP-62 NSCLC
[11] = system: OVCAR-3 ovarian
[12] = system: T-47D breast
[13] = system: SF-295 CNS
[14] = system: SK-MEL-5 melanoma
[15] = system: PC-3 prostate
[16] = system: NCI-H460 lung
[17] = system: LOX IMVI melanoma
[18] = system: NCI-H226 lung
[19] = system: SK-OV-3 ovarian
[20] = system: COLO 205 colon
[21] = system: U251 CNS
[22] = system: OVCAR-4 ovarian
[23] = system: KM12 colon
[24] = system: SK-MEL-2 melanoma
[25] = system: MDA-MB-231 breast
[26] = system: SF-539 CNS
[27] = system: NCI-H522 lung
[28] = system: HOP-92 NSCLC
[29] = system: HCT-116 colon
[30] = system: SR leukemia
[31] = system: HL-60(TB) leukemia
[32] = system: IGROV1 ovarian
[33] = system: NCI-H23 lung
[34] = system: CCRF-CEM leukemia
[35] = system: HCC-2998 colon
[36] = system: MDA-N
[37] = system: A498 renal
[38] = system: EKVX NSCLC
[39] = system: SW-620 colon
[40] = system: OVCAR-8 ovarian
[41] = system: SN12C renal
[42] = system: SNB-19 CNS
[43] = system: K-562 leukemia
[44] = system: HT29 colon
[45] = system: SK-MEL-28 melanoma
[46] = system: TK-10 renal
[47] = system: UACC-62 melanoma
[48] = system: HS 578T breast
[49] = system: UACC-257 melanoma
[50] = system: UO-31 renal
[51] = system: NCI/ADR-RES ovarian
[52] = system: RPMI-8226 leukemia
[53] = system: MDA-MB-435
[54] = system: A549 NSCLC
[55] = system: OVCAR-5 ovarian
[56] = system: SNB-75 CNS
[57] = system: DU-145 prostate
[58] = system: RXF 393 renal
[59] = system: BT-549 breast

For Cc1cccc2c(=O)c3cccc(CC(=O)O)c3oc12, the TGI [1] was > 100 µM, the TGI [2] was > 100 µM and the TGI [3] was > 100 µM. The TGI [4] was > 100 µM, the TGI [5] was > 100 µM and the TGI [6] was > 100 µM. For the same molecule, the TGI [7] was > 100 µM, the TGI [8] was > 100 µM and the TGI [9] was > 100 µM. For the same molecule, the TGI [10] was > 100 µM, the TGI [11] was > 100 µM and the TGI [12] was > 100 µM. For the same molecule, the TGI [13] was > 100 µM, the TGI [14] was > 100 µM and the TGI [15] was > 100 µM. The TGI [16] was > 100 µM, the TGI [17] was > 100 µM and the TGI [18] was > 100 µM. For the same molecule, the TGI [19] was > 100 µM, the TGI [20] was > 100 µM and the TGI [21] was > 100 µM. For the same molecule, the TGI [22] was > 100 µM, the TGI [23] was > 100 µM and the TGI [24] was > 100 µM. For the same molecule, the TGI [25] was > 100 µM, the TGI [26] was > 100 µM and the TGI [27] was > 100 µM. For the same molecule, the TGI [28] was > 100 µM, the TGI [29] was > 100 µM and the TGI [30] was > 100 µM. The TGI [31] was > 100 µM, the TGI [32] was > 100 µM and the TGI [33] was > 100 µM. For the same molecule, the TGI [34] was > 100 µM, the TGI [35] was > 100 µM and the TGI [36] was > 100 µM. For the same molecule, the TGI [37] was > 100 µM, the TGI [38] was > 100 µM and the TGI [39] was > 100 µM. The TGI [40] was > 100 µM, the TGI [41] was > 100 µM and the TGI [42] was > 100 µM. For the same molecule, the TGI [43] was > 100 µM, the TGI [44] was > 100 µM and the TGI [45] was > 100 µM. For the same molecule, the TGI [46] was > 100 µM, the TGI [47] was > 100 µM and the TGI [48] was > 100 µM. The TGI [49] was > 100 µM, the TGI [50] was > 100 µM and the TGI [51] was > 100 µM. The TGI [52] was > 100 µM, the TGI [53] was > 100 µM and the TGI [54] was > 100 µM.

COC(=O)c1c(C(=O)OC)c2ccccn2c1-c1cc(C)cc2c1C(=O)C=CC2=O was tested, and the TGI [1] was 14.5 µM, the TGI [2] was 11.3 µM and the TGI [55] was 16.9 µM. It also gave a TGI [3] of 12.4 µM, a TGI [4] of 15.6 µM and a TGI [5] of 15 µM. It also gave a TGI [7] of 17.2 µM, a TGI [8] of 3.76 µM and a TGI [9] of 20.8 µM. For the same molecule, the TGI [10] was 21.7 µM, the TGI [11] was 15.6 µM and the TGI [12] was 7.83 µM. It also gave a TGI [13] of 18 µM, a TGI [14] of 17 µM and a TGI [15] of 18.5 µM. It also gave a TGI [18] of 19.7 µM, a TGI [20] of 13.4 µM and a TGI [22] of 18.8 µM. For the same molecule, the TGI [24] was 17.2 µM, the TGI [25] was 15.9 µM and the TGI [26] was 15.7 µM. It also gave a TGI [29] of 15.7 µM, a TGI [30] of 8.53 µM and a TGI [56] of 23.6 µM. For the same molecule, the TGI [31] was 5.04 µM, the TGI [32] was 17.3 µM and the TGI [33] was 14.8 µM. For the same molecule, the TGI [34] was 3.65 µM, the TGI [35] was 20.1 µM and the TGI [36] was 15.3 µM. For the same molecule, the TGI [37] was 17.5 µM, the TGI [38] was 21.7 µM and the TGI [39] was 8.21 µM. It also gave a TGI [40] of 14.4 µM, a TGI [57] of 20.1 µM and a TGI [41] of 17.6 µM. For the same molecule, the TGI [42] was 18.6 µM, the TGI [43] was 7.63 µM and the TGI [44] was 16.6 µM. The TGI [45] was 17.9 µM, the TGI [46] was 18.4 µM and the TGI [47] was 17.7 µM. For the same molecule, the TGI [48] was 24.2 µM, the TGI [49] was 13.6 µM and the TGI [50] was 6.05 µM. The TGI [58] was 18.5 µM, the TGI [51] was 27.8 µM and the TGI [52] was 8.9 µM. It also gave a TGI [53] of 16 µM and a TGI [54] of 25.7 µM.

CC1(C)CC[C@]2(C(=O)O)CC[C@]3(C)C(=CC[C@@H]4[C@@]5(C)C/C(=C/c6cccnc6)[C@H](O)C(C)(C)[C@@H]5CC[C@]43C)[C@@H]2C1 was tested, and the GI50 [1] was 16.7 µM, the TGI [1] was 51.3 µM and the GI50 [2] was 11.2 µM. The TGI [2] was > 100 µM, the GI50 [55] was 11.2 µM and the TGI [55] was 44 µM. The GI50 [3] was 10.2 µM, the TGI [3] was > 100 µM and the GI50 [4] was 3.85 µM. It also gave a TGI [4] of 25.6 µM, a GI50 [5] of 13.4 µM and a TGI [5] of 36.2 µM. The GI50 [6] was 5.25 µM, the TGI [6] was > 100 µM and the GI50 [7] was 6.11 µM. For the same molecule, the TGI [7] was > 100 µM, the GI50 [8] was 2.63 µM and the TGI [8] was 26 µM. For the same molecule, the GI50 [9] was 8.68 µM, the TGI [9] was > 100 µM and the GI50 [10] was 13 µM. For the same molecule, the TGI [10] was > 100 µM, the GI50 [11] was 7.08 µM and the TGI [11] was 25.6 µM. For the same molecule, the GI50 [12] was 9.89 µM, the TGI [12] was > 100 µM and the GI50 [13] was 4.3 µM. It also gave a TGI [13] of 87.4 µM, a GI50 [14] of 6.71 µM and a TGI [14] of 23.2 µM. It also gave a GI50 [15] of 2.66 µM, a TGI [15] of 72.4 µM and a GI50 [16] of 4.14 µM. It also gave a TGI [16] of 26.4 µM, a GI50 [17] of 8.28 µM and a TGI [17] of 24.2 µM. The GI50 [18] was 8.63 µM, the TGI [18] was 63 µM and the GI50 [19] was 19 µM. For the same molecule, the TGI [19] was > 100 µM, the GI50 [20] was 9.71 µM and the TGI [20] was 29.6 µM. It also gave a GI50 [21] of 5.59 µM, a TGI [21] of 32.7 µM and a GI50 [22] of 40 µM. For the same molecule, the TGI [22] was > 100 µM, the GI50 [23] was 4.58 µM and the TGI [23] was 32.7 µM. It also gave a GI50 [24] of 17 µM, a TGI [24] of 66.1 µM and a GI50 [25] of 14.9 µM. The TGI [25] was 57.3 µM, the GI50 [26] was 5.54 µM and the TGI [26] was 24 µM. The GI50 [27] was 8.97 µM, the TGI [27] was > 100 µM and the GI50 [28] was 2.22 µM. It also gave a TGI [28] of 10.1 µM, a GI50 [29] of 5.12 µM and a TGI [29] of 22.4 µM. For the same molecule, the GI50 [30] was 13.2 µM, the TGI [30] was > 100 µM and the GI50 [56] was 38.6 µM. For the same molecule, the TGI [56] was > 100 µM, the GI50 [31] was 2.12 µM and the TGI [31] was 5.94 µM. For the same molecule, the GI50 [32] was 5.13 µM, the TGI [32] was > 100 µM and the GI50 [33] was 9.64 µM. For the same molecule, the TGI [33] was > 100 µM, the GI50 [34] was 2.88 µM and the TGI [34] was 18.5 µM. For the same molecule, the GI50 [35] was 11.4 µM, the TGI [35] was 54.4 µM and the GI50 [59] was 12.4 µM. The TGI [59] was > 100 µM, the GI50 [37] was > 100 µM and the TGI [37] was > 100 µM. It also gave a GI50 [38] of 6.02 µM, a TGI [38] of 56.6 µM and a GI50 [39] of 5.34 µM. The TGI [39] was > 100 µM, the GI50 [40] was 9.47 µM and the TGI [40] was > 100 µM. For the same molecule, the GI50 [57] was 10.7 µM, the TGI [57] was > 100 µM and the GI50 [41] was 4.7 µM. The TGI [41] was > 100 µM, the GI50 [42] was 5.55 µM and the TGI [42] was > 100 µM. The GI50 [43] was 3.1 µM, the TGI [43] was > 100 µM and the GI50 [44] was 8.78 µM. For the same molecule, the TGI [44] was 42.1 µM, the GI50 [45] was 11.1 µM and the TGI [45] was 35 µM. For the same molecule, the GI50 [46] was 21.7 µM, the TGI [46] was > 100 µM and the GI50 [47] was 4.72 µM. For the same molecule, the TGI [47] was 36.4 µM, the GI50 [48] was 21.8 µM and the TGI [48] was > 100 µM. For the same molecule, the GI50 [49] was 24.9 µM, the TGI [49] was 92.8 µM and the GI50 [50] was 4.64 µM. It also gave a TGI [50] of 19.2 µM, a GI50 [58] of 7.28 µM and a TGI [58] of 36.6 µM. The GI50 [51] was 9.82 µM, the TGI [51] was > 100 µM and the GI50 [52] was 3.02 µM. For the same molecule, the TGI [52] was 18.8 µM, the GI50 [53] was 15.2 µM and the TGI [53] was > 100 µM. The GI50 [54] was 3.65 µM and the TGI [54] was > 100 µM.
